Reference: publication PMC8401404 (Molecules, 2021)
Structures can show the parent of a compound that is named as a salt.

Key:
[1] = test system: A549; experiment: MTS cytotoxicity assay, 2D cell culture; details: Homo sapiens, A549, 72 h, read-out: Cytotoxicity Assay IC50 ± SD; A549 2D, 72 h, MTS; n = 2
Method: (§1) MTS assay gives us information about the number of living cells, in this case, metabolically active cells, whereas the BrdU proliferation assay gives a measure of the cell population in active division phase. Both assays were performed in 2D and 3D assay formats. For the 2D cell assay format, we used classic two-dimensional in vitro assays and as a 3D assay we used a hanging drop proliferation cell assay as previously described. We explored the activity of compounds on three human lung cancer cell lines, A549, HCC827 and NCI-H358. The compound activity was also tested on human lung fibroblast cell line MRC-5. A two-dimensional in vitro viability assay was performed on the MRC-5 cell line to see if tested compounds are cytotoxic on normal cell lines in low concentrations. […] 7.1.
(§2) Test compounds were synthesized by a research group at the Department of Organic Chemistry, Faculty of Chemical Engineering and Technology, University of Zagreb. […] Compounds were diluted 1:3. We transferred 500 nL (for 2D cell culture) or 400 nL (for 3D cell culture) of the compound from a mother plate to test plate by using Mosquito (TTP labtech). DMSO percentage in test concentrations was 0.5–1.0%. Starting concentration of the test compounds and standard compound doxorubicin was 50 µM (2D cell culture) or 100 µM (3D cell culture).
(§3) Cells were grown in 96-well cell star polystyrene plates. We seeded 10,000 cells/well in wells 4 h prior to the treatment with different compounds concentrations and incubated for 72 h. A cell viability assay was performed according to the manufacturer’s instructions, using CellTiter 96 aqueous solution, MTS kit (Promega, Madison, WI, USA). After 0.5–2 h of cell incubation with MTS in 2D cell culture, the plates were read using PE EnVision absorbance at 490 nm.
(§4) Calculation of IC50 data, curves and QC analysis was performed by using Excel tools and GraphPadPrism software (La Jolla, CA, USA), v. […] QC criteria parameters (Z’, S:B, R2, HillSlope) were checked for every IC50 curve.

[2] = test system: HCC827; experiment: MTS cytotoxicity assay, 2D cell culture; details: Homo sapiens, HCC827, 72 h, read-out: Cytotoxicity Assay IC50 ± SD; HCC827 2D
Method: as §1, §2, §3, §4

[3] = test system: NCI-H358; experiment: MTS cytotoxicity assay, 2D cell culture; details: Homo sapiens, NCI-H358, 72 h, read-out: Cytotoxicity Assay IC50 ± SD; NCI-H358 2D
Method: as §1, §2, §3, §4

[4] = test system: A549; experiment: Cytotoxicity (viability) assay, 3D hanging drop cell culture; details: Homo sapiens, A549, 72 h, read-out: Cytotoxicity Assay IC50 ± SD; A549 3D
Method: as §1, §2
(§5) Cells were grown in 96-well Perfecta 3D hanging drop plates 5000 cell/well for 4 days until spheres were formed (and checked under the microscope). After sphere formation cells were treated with compounds followed by 72 h incubation. Cell viability assay was performed according to the manufacturer’s instructions, using CellTiter GLO 3D for 3D cell culture (Promega); cell incubation was 5 min on the shaker followed by 25 min incubation in the dark. Plates were read using PE EnVision luminescence.
as §4

[5] = test system: HCC827; experiment: as above; details: Homo sapiens, HCC827, 72 h, read-out: Cytotoxicity Assay IC50 ± SD; HCC827 3D
Method: as §1, §2, §5, §4

[6] = test system: NCI-H358; experiment: as above; details: Homo sapiens, NCI-H358, 72 h, read-out: Cytotoxicity Assay IC50 ± SD; NCI-H358 3D
Method: as §1, §2, §5, §4

[7] = MTS cytotoxicity assay, 2D cell culture, normal lung fibroblasts; details: human
Method: as §1, §2, §3, §4

[8] = test system: A549; experiment: BrdU proliferation assay, 2D cell culture; type: cell-based, human; details: Homo sapiens
Method: as §1, §2, §3
(§6) Proliferation assay was performed using Cell Proliferation ELISA, BrdU (Sigma, St. Louis, MO, USA). Briefly, 48 h hours after compound addition, 10 µM of BrdU was added to each well and incubated for the following 24 h. After incubation, a single cell suspension was made for 3D cell culture in the new 96-well plate. Plates were centrifuged and supernatants were removed from each plate (for 2D and 3D cell culture) followed by 60 min incubation at 60 °C. The rest of the proliferation assay was performed according to the manufacturer’s instructions.
as §4

[9] = test system: HCC827; experiment: BrdU proliferation assay, 2D cell culture; type: cell-based, human; details: Homo sapiens
Method: as §1, §2, §3, §6, §4

[10] = test system: NCI-H358; experiment: BrdU proliferation assay, 2D cell culture; type: cell-based, human; details: Homo sapiens, NCI-H358, 2D, n = 2, read-out: Proliferation Assay IC50 ± SD
Method: as §1, §2, §3, §6, §4

[11] = test system: A549; experiment: BrdU proliferation assay, 3D hanging drop cell culture; type: cell-based, human; details: Homo sapiens
Method: as §1, §2, §5, §6, §4

[12] = test system: HCC827; experiment: as above; type: cell-based, human; details: Homo sapiens
Method: as §1, §2, §5, §6, §4

[13] = test system: NCI-H358; experiment: as above; type: cell-based, human; details: Homo sapiens, NCI-H358, 3D, n = 2, read-out: Proliferation Assay IC50 ± SD
Method: as §1, §2, §5, §6, §4

[14] = test system: E. coli ATCC 25922; experiment: Broth microdilution testing (CLSI); type: cell-based, Escherichia coli; details: Escherichia coli, ATCC25922; broth microdilution, 16–24h at 37 °C; read-out: MIC E. coli ATCC 25922
Method: (§7) Broth microdilution testing was performed according to CLSI (Clinical Laboratory Standards Institute) guidelines. MIC (minimal inhibitory concentration) value was defined as the last tested concentration of compound at which there is no visible growth of bacteria. […] Clinical and Laboratory Standards Institute (CLSI) guidelines.

[15] = test system: S. aureus ATCC 29213; experiment: Broth microdilution testing (CLSI); type: cell-based, Staphylococcus aureus; details: Staphylococcus aureus, ATCC29213, broth microdilution, 16–24h at 37 °C; read-out: MIC S. aureus ATCC 29213
Method: as §7

[16] = test system: S. cerevisiae ATCC 7752; experiment: Broth microdilution testing (CLSI); type: cell-based, Saccharomyces cerevisiae; details: Saccharomyces cerevisiae, ATCC7752; broth microdilution, 16–24h at 37 °C; read-out: MIC S. cerevisiae ATCC 7752
Method: as §7

[17] = MRC-5 normal lung fibroblasts, 2D culture
[18] = A549, 2D, BrdU, n = 2, read-out: Proliferation Assay IC50 ± SD
[19] = HCC827, 2D, BrdU, n = 2, read-out: Proliferation Assay IC50 ± SD
[20] = A549, 3D, BrdU, n = 2, read-out: Proliferation Assay IC50 ± SD
[21] = HCC827, 3D, BrdU, n = 2, read-out: Proliferation Assay IC50 ± SD
[22] = HCC827, read-out: Proliferation Assay IC50 ± SD, HCC827 2D

SMILES | IC50 [1] [nM] | IC50 [2] [nM] | IC50 [3] [nM] | IC50 [4] [nM] | IC50 [5] [nM] | IC50 [6] [nM] | IC50 [8, 18] [nM] | IC50 [10] [nM] | IC50 [11, 20] [nM] | IC50 [13] [nM] | melting point [°C] | further results
N#Cc1ccc2nc(-c3ccc(-c4ccc([N+](=O)[O-])cc4)o3)sc2c1 [Compound 4, 6-Cyano-2-[5-(4-nitrophenyl)furan-2-yl]benzothiazole] | > 50000 | > 50000 | > 50000 | > 100000 | > 100000 | > 100000 | > 50000 | > 50000 | > 100000 | > 100000 | 276 to 279 | IC50 at 72 h [7, 17]: > 50000 nM; IC50 [9, 19]: > 50000 nM; IC50 [12, 21]: > 100000 nM; MIC [14]: > 100 µM; MIC [15]: > 100 µM; MIC [16]: > 100 µM
COc1cccc2c1C(=O)c1c(O)c3c(c(O)c1C2=O)C[C@@](O)(C(=O)CO)C[C@@H]3O[C@H]1C[C@H](N)[C@H](O)[C@H](C)O1 [Doxorubicin, reference compound] | 1310 ± 110 | 320 ± 30 | 150 ± 60 | 5860 ± 1100 | 1470 ± 120 | 990 ± 150 | 130 ± 10 | 70 ± 40 | 480 ± 30 | 2300 ± 1910 | – | IC50 at 72 h [7]: 600 ± 10 nM; IC50 [9, 19]: 250 ± 280 nM; IC50 [12, 21]: 1890 ± 2300 nM
CN[C@@H]1C[C@H]2O[C@@](C)([C@@H]1OC)n1c3ccccc3c3c4c(c5c6ccccc6n2c5c31)C(=O)NC4 [Staurosporine, reference compound] | – | 33 ± 2 | – | – | – | – | – | – | – | – | – | IC50 at 72 h [7]: 31 ± 11 nM; IC50 ([8]; A549, read-out: Proliferation Assay IC50 ± SD, A549 2D): 35 ± 17 nM; IC50 [9, 22]: 4 ± 2 nM; IC50 ([11]; A549, read-out: Proliferation Assay IC50 ± SD, A549 3D): 110 ± 1 nM
CC(C)NC(=N)c1ccc2[nH]c(-c3ccc(-c4ccc([N+](=O)[O-])cc4)o3)nc2c1 (as salt: hydrochloride) [Compound 11, 2-[5-(4-Nitrophenyl)furan-2-yl]-5(6)-N-isopropilamidinobenzimidazole hydrochloride] | – | – | – | – | – | – | – | – | – | – | > 270 | –
CC(C)NC(=N)c1ccc2nc(-c3ccc(-c4ccc(Cl)cc4)o3)sc2c1 (as salt: hydrochloride) [Compound 8, 2-[5-(4-Chlorophenyl)furan-2-yl]-6-N-isopropilamidinobenzothiazole hydrochloride] | – | – | – | – | – | – | – | – | – | – | 204 to 208 | –
COc1cc2c(Nc3ccc(Br)cc3F)ncnc2cc1OCC1CCN(C)CC1 [Vandetanib, reference compound] | > 25000 | 580 ± 30 | 3120 | > 50000 | 160 ± 40 | 380 ± 200 | > 25000 | > 25000 | > 50000 | 380 ± 170 | – | IC50 at 72 h [7, 17]: 11100 nM; IC50 [9, 22]: 200 ± 110 nM; IC50 ([12]; HCC827, read-out: Proliferation Assay IC50 ± SD, HCC827 3D): 80 ± 20 nM
CC(C)NC(=N)c1ccc2nc(-c3ccc(-c4ccc([N+](=O)[O-])cc4)o3)sc2c1 (as salt: hydrochloride) [Compound 5, 2-[5-(4-Nitrophenyl)furan-2-yl]-6-N-isopropilamidinobenzothiazole hydrochloride] | – | – | – | – | – | – | – | – | – | – | 201 to 206 | –
